Several values for one entry are separate records, joined by “and”; a condition that tells them apart may be missing. Identical values can stand only once. Like-named read-outs stand apart in the source and are kept apart here. Each block holds one molecule with its values, some of them ahead of it.
Experiments:
[1] = target: T1, HsHGPRT (Homo sapiens, UniProt P00492); assay: Inhibition analysis of HsHGPRT, IMPDH-coupled assay; format: biochemical
T1 sequence (P00492 1-218): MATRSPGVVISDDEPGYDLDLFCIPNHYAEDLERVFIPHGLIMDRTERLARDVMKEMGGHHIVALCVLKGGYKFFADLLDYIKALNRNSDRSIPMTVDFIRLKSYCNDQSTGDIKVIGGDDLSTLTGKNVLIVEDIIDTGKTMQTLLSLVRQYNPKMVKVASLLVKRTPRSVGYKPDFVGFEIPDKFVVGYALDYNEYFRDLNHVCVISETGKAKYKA

[2] = target: T2, PfHGXPRT (Plasmodium falciparum, UniProt P20035); assay: Inhibition analysis of PfHGXPRT, IMPDH-coupled assay; format: biochemical
T2 sequence (P20035 1-231): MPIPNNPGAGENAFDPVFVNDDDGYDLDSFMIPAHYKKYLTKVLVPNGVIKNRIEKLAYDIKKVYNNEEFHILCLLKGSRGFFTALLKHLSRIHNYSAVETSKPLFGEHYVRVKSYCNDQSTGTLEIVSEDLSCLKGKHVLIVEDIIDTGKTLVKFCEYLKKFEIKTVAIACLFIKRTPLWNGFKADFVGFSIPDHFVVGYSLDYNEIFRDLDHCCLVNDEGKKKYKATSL

[3] = system: T. cruzi HGPRT; assay: Screening of T. cruzi HGPRT inhibitors; format: biochemical, Trypanosoma cruzi; conditions: selectivity index: Ki of HsHGPRT divided by appKi of T. cruzi HGPRT
[4] = target: T3, T. cruzi HGPRT (Trypanosoma cruzi, UniProt Q4DGA3); assay: Screening of T. cruzi HGPRT inhibitors; format: biochemical
T3 sequence (Q4DGA3 1-221): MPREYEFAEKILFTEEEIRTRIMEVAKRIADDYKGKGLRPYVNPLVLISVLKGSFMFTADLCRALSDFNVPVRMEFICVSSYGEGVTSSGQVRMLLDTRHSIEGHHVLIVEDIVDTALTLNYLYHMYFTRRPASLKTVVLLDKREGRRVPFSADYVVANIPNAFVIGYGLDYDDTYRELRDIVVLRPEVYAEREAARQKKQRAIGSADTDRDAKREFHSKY

[5] = target: T4, TcA (Trypanosoma cruzi, UniProt Q4DRC4); conditions: cited from earlier work
T4 sequence (Q4DRC4 1-241): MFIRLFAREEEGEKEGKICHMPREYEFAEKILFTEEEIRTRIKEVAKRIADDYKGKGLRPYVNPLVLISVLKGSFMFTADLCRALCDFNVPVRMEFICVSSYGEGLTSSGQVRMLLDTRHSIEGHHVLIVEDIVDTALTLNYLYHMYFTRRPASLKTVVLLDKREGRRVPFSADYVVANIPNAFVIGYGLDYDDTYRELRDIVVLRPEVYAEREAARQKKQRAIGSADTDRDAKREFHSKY

[6] = target: T5, TcC (Trypanosoma cruzi, UniProt Q4DGA3); assay: Isothermal titration calorimetry; format: binding
T5 sequence (Q4DGA3 1-221): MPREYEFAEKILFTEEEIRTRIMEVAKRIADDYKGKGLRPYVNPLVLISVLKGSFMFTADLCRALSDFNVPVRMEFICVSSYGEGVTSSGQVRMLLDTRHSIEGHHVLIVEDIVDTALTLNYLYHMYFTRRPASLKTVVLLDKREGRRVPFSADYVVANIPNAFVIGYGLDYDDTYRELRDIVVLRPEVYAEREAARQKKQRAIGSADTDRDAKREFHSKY

[7] = target: T5, TcC; assay: Product inhibition studies of TcC; format: biochemical
[8] = substrate: Nc1nc2nc[nH]c2c(=O)[nH]1; assay: Steady-state kinetics of TcA, biosynthetic; format: biochemical, Trypanosoma cruzi; conditions: other: biosynthetic reaction, pH 8.3
[9] = substrate: O=c1[nH]cnc2nc[nH]c12; assay: purified protein, by the assay type; conditions: other: biosynthetic reaction, pH 8.3
[10] = substrate: Nc1nc2nc[nH]c2c(=O)[nH]1; assay: Steady-state kinetics of TcC, biosynthetic; format: biochemical, Trypanosoma cruzi; conditions: other: biosynthetic reaction, pH 8.3
[11] = substrate: Oc1ncnc2[nH]ncc12; assay: Steady-state kinetics of TcC, biosynthetic; format: biochemical, Trypanosoma cruzi; conditions: other: biosynthetic reaction, pH 8.3
[12] = HPP-MP biosynthesis, fixed PRPP (1 mM), Lineweaver–Burk plots
[13] = GMP biosynthesis, variable PRPP (20–215 μM), fixed Gua (70 μM)
[14] = IMP biosynthesis, variable PRPP (20–215 μM), fixed Hx (60 μM)

Molecule: CN(Cc1c[nH]c2c(=O)[nH]cnc12)[C@H](CO)CCP(=O)(O)O.N.N [Compound 4]
Ki [1]: 4.6 ± 0.07 µM | Ki [2]: 0.108 ± 0.03 µM | SI [3]: 3.2 | Ki [4]: 1.44 ± 0.03 µM

Molecule: Oc1ncnc2[nH]ncc12 [HPP, 4-hydroxypyrazolo(3,4-d)pyrimidine, reference compound]
Km [5, 12]: 710 ± 130 µM | kcat [5, 12]: 0.34 ± 0.03 ^c^, ^d s^–1

binding to free TcC enzyme ([6]; ligand concentrations 500- and 900-fold higher than Km): could not be detected
Molecule: O=c1[nH]cnc2nc[nH]c12 [Hx, hypoxanthine]

Ki [7]: 0.8 ± 0.1 µM | Kd [6]: 142 ± 1 µM | ΔG° ([6]; apo TcC, 25 °C, pH 8.0): –5247 ± 5 cal mol^–1 | ΔH° ([6]; apo TcC, 25 °C, pH 8.0): 5160 ± 450 cal mol^–1 | –TΔS° ([6]; apo TcC, 25 °C, pH 8.0): –10,410 ± 450 cal mol^–1 | Ka ([6]; association constant, apo TcC, 25 °C, pH 8.0): 7070 ± 60 M^–1 | N ([6]; number of binding sites per monomer, apo TcC, 25 °C, pH 8.0): 1.2 ± 0.2
Molecule: O=P(O)(O)OC[C@H]1O[C@H](OP(=O)(O)OP(=O)(O)O)[C@H](O)[C@@H]1O [PRPP, 5-phospho-α-D-ribose 1-diphosphate]
Km [5, 13]: 32 ± 5 µM | kcat [5, 13]: 32 ^b s^–1 | Km [5, 14]: 31 ± 5 µM | kcat [5, 14]: 23 ^b s^–1

B1: TcA (Trypanosoma cruzi strain CL Brener) (protein)
chain: MFIRLFAREEEGEKEGKICHMPREYEFAEKILFTEEEIRTRIKEVAKRIADDYKGKGLRPYVNPLVLISVLKGSFMFTADLCRALCDFNVPVRMEFICVSSYGEGLTSSGQVRMLLDTRHSIEGHHVLIVEDIVDTALTLNYLYHMYFTRRPASLKTVVLLDKREGRRVPFSADYVVANIPNAFVIGYGLDYDDTYRELRDIVVLRPEVYAEREAARQKKQRAIGSADTDRDAKREFHSKY
kcat/Km [8]: 1 × 10^5 M^–1 s^–1 and 2.5 × 10^6 M^–1 s^–1 | kcat/Km ([9]; TcA): 1 × 10^5 M^–1 s^–1

B2: TcC (Trypanosoma cruzi strain CL Brener) (protein)
chain: MPREYEFAEKILFTEEEIRTRIMEVAKRIADDYKGKGLRPYVNPLVLISVLKGSFMFTADLCRALSDFNVPVRMEFICVSSYGEGVTSSGQVRMLLDTRHSIEGHHVLIVEDIVDTALTLNYLYHMYFTRRPASLKTVVLLDKREGRRVPFSADYVVANIPNAFVIGYGLDYDDTYRELRDIVVLRPEVYAEREAARQKKQRAIGSADTDRDAKREFHSKY
kcat/Km ([9]; TcC): 1 × 10^5 M^–1 s^–1 and 2.1 × 10^6 M^–1 s^–1 | kcat/Km [10]: 1 × 10^5 M^–1 s^–1 and 2.5 × 10^6 M^–1 s^–1 | kcat/Km [11]: 10^3 M^–1 s^–1
